Source: paper PMC10653643 (Journal of Enzyme Inhibition and Medicinal Chemistry, 2023)
Where two headings read alike, the source gives them in different places.

Columns and labels:
[1] = biological target: H1N1 neuraminidase (NA), group-1 (Influenza A virus, UniProt P03468); experiment: biochemical
[2] = test system: A/PR/8/34 (H1N1) virus in MDCK cells; experiment: microbe, parasite or virus in culture; format: cell-based, influenza A virus H1N1; conditions: read-out: EC50 towards influenza virus H1N1
[3] = test system: A/Wisconsin/67/05 (H3N2) virus in MDCK cells; experiment: microbe, parasite or virus in culture; format: cell-based, influenza A virus H3N2; conditions: for EC50: read-out: EC50 towards influenza virus H3N2
[4] = in vitro; conditions: dog
[5] = Influenza A virus, H1N1|PR/8, MDCK

Sequence of H1N1 neuraminidase (NA), group-1 (P03468 36-454 limits assumed): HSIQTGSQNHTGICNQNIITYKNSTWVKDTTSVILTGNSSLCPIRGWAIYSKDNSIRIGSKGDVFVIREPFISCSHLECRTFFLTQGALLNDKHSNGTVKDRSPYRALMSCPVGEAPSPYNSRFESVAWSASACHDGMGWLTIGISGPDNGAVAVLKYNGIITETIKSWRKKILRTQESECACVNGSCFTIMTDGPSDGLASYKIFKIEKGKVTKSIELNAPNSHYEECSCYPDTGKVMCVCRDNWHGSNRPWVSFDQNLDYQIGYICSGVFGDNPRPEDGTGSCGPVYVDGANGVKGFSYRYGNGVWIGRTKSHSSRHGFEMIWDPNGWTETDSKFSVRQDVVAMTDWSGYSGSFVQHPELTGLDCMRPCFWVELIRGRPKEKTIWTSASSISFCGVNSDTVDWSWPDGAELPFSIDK

## CCC(CC)O[C@@H]1C=C(C(=O)O)C[C@H](NCc2ccc(N3CCC4(CC3)OCCO4)cc2)[C@H]1NC(C)=O [6e, (3R,4R,5S)-5-((4–(1,4-dioxa-8-azaspiro[4.5]decan-8-yl)benzyl)amino)-4-acetamido-3-(pentan-3-yloxy)cyclohex-1-ene-1-carboxylic acid]
[1]
  IC50: 1990 ± 190 nM

## CCC(CC)O[C@@H]1C=C(C(=O)O)C[C@H](NCc2ccc(-c3cncnc3)cc2)[C@H]1NC(C)=O [3c, (3R,4R,5S)-4-acetamido-3-(pentan-3-yloxy)-5-((4-(pyrimidin-5-yl)benzyl)amino)cyclohex-1-ene-1-carboxylic acid]
[1]
  IC50: 12100 ± 1100 nM

## CCC(CC)O[C@@H]1C=C(C(=O)O)C[C@H](NCc2ccc(N3CCC3)cc2)[C@H]1NC(C)=O [6n, (3R,4R,5S)-4-acetamido-5-((4-(azetidin-1-yl)benzyl)amino)-3-(pentan-3-yloxy)cyclohex-1-ene-1-carboxylic acid]
[1]
  IC50: 140 ± 10 nM

## CCC(CC)O[C@@H]1C=C(C(=O)O)C[C@H](NCc2ccc(-c3c(C)nc(N)nc3C)cc2)[C@H]1NC(C)=O [3e, (3R,4R,5S)-4-acetamido-5-((4–(2-amino-4,6-dimethylpyrimidin-5-yl)benzyl)amino)-3-(pentan-3-yloxy)cyclohex-1-ene-1-carboxylic acid]
[1]
  IC50: 8060 ± 480 nM

## CCC(CC)O[C@@H]1C=C(C(=O)O)C[C@H](NCc2ccc(N3CC4(CCN(C(=O)OC(C)(C)C)CC4)C3)cc2)[C@H]1NC(C)=O [6c, (3R,4R,5S)-4-acetamido-5-((4–(7-(tert-butoxycarbonyl)-2,7-diazaspiro[3.5]nonan-2-yl)benzyl)amino)-3-(pentan-3-yloxy)cyclohex-1-ene-1-carboxylic acid]
[1]
  IC50: 1400 ± 73 nM

## CC(=O)N[C@H]1[C@H]([C@H](O)[C@H](O)CO)OC(C(=O)O)=C[C@@H]1N=C(N)N [ZA, zanamivir, reference compound]
[2]; [5]
  EC50: […]
[3]; Influenza A virus, H3N2, MDCK
  EC50: 270 ± 30 nM
[4]
  CC50: > 250000 nM

## CCC(CC)O[C@@H]1C=C(C(=O)O)C[C@H](NCc2ccc(N3CCC4(CC3)CN(C(=O)OC(C)(C)C)C4)cc2)[C@H]1NC(C)=O [6a, (3R,4R,5S)-4-acetamido-5-((4–(2-(tert-butoxycarbonyl)-2,7-diazaspiro[3.5]nonan-7-yl)benzyl)amino)-3-(pentan-3-yloxy)cyclohex-1-ene-1-carboxylic acid]
[1]
  IC50: 3940 ± 110 nM

## CCC(CC)O[C@@H]1C=C(C(=O)O)C[C@H](NCc2ccc(N3CC4(CN(C(=O)OC(C)(C)C)C4)C3)cc2)[C@H]1NC(C)=O [6d, (3R,4R,5S)-4-acetamido-5-((4–(6-(tert-butoxycarbonyl)-2,6-diazaspiro[3.3]heptan-2-yl)benzyl)amino)-3-(pentan-3-yloxy)cyclohex-1-ene-1-carboxylic acid]
[1]
  IC50: 3100 ± 240 nM

## CCC(CC)O[C@@H]1C=C(C(=O)O)C[C@H](NCc2ccc(N3CC4CC4C3)cc2)[C@H]1NC(C)=O (stereo partly drawn) [6g, (3R,4R,5S)-5-((4–(3-azabicyclo[3.1.0]hexan-3-yl)benzyl)amino)-4-acetamido-3-(pentan-3-yloxy)cyclohex-1-ene-1-carboxylic acid]
[1]
  IC50: 190 ± 9.6 nM
[2]; [5]
  EC50: 30 ± 30 nM
[3]
  fold activity enhancement over zanamivir (ZA) against H3N2 virus: ~2 fold
[3]; Influenza A virus, H3N2, MDCK
  EC50: 160 ± 80 nM
[4]
  CC50: > 250000 nM

## CCC(CC)O[C@@H]1C=C(C(=O)O)C[C@H](NCc2ccc(N3CCC[C@H]3C)cc2)[C@H]1NC(C)=O [6k, (3R,4R,5S)-4-acetamido-5-((4-((R)-2-methylpyrrolidin-1-yl)benzyl)amino)-3-(pentan-3-yloxy)cyclohex-1-ene-1-carboxylic acid]
[1]
  IC50: 84 ± 7.2 nM
[2]; [5]
  EC50: 20 ± 10 nM
[3]
  fold activity enhancement over OSC against H3N2 virus: ~3 fold
  fold activity enhancement over zanamivir (ZA) against H3N2 virus: ~2 fold
[3]; Influenza A virus, H3N2, MDCK
  EC50: 120 ± 30 nM
[4]
  CC50: > 250000 nM

## CCC(CC)O[C@@H]1C=C(C(=O)O)C[C@H](N)[C@H]1NC(C)=O [OSC, oseltamivir carboxylate, reference compound]
[2]
  EC50: […]
[3]
  EC50: 360 ± 160 nM
[4]
  CC50: > 250000 nM

## CCC(CC)O[C@@H]1C=C(C(=O)O)C[C@H](NCc2ccc(N3CC4C(C3)C4(C)C)cc2)[C@H]1NC(C)=O (stereo partly drawn) [6f, (3R,4R,5S)-4-acetamido-5-((4–(6,6-dimethyl-3-azabicyclo[3.1.0]hexan-3-yl)benzyl)amino)-3-(pentan-3-yloxy)cyclohex-1-ene-1-carboxylic acid]
[1]
  IC50: 430 ± 36 nM

## CCC(CC)O[C@@H]1C=C(C(=O)O)C[C@H](NCc2ccc(N(C)CC)cc2)[C@H]1NC(C)=O [6o, (3R,4R,5S)-4-acetamido-5-((4-(ethyl(methyl)amino)benzyl)amino)-3-(pentan-3-yloxy)cyclohex-1-ene-1-carboxylic acid]
[1]
  IC50: 360 ± 18 nM

## CCC(CC)O[C@@H]1C=C(C(=O)O)C[C@H](NCc2ccc(N3CC4CCCCC4C3)cc2)[C@H]1NC(C)=O (stereo partly drawn) [6i, (3R,4R,5S)-4-acetamido-5-((4-(octahydro-2H-isoindol-2-yl)benzyl)amino)-3-(pentan-3-yloxy)cyclohex-1-ene-1-carboxylic acid]
[1]
  IC50: 150 ± 31 nM
[2]; [5]
  EC50: 30 ± 30 nM
[3]; Influenza A virus, H3N2, MDCK
  EC50: 320 ± 80 nM
[4]
  CC50: > 250000 nM

## CCC(CC)O[C@@H]1C=C(C(=O)O)C[C@H](NCc2ccc(N3CCC4(CCN(C(=O)OC(C)(C)C)C4)C3)cc2)[C@H]1NC(C)=O (stereo partly drawn) [6b, (3R,4R,5S)-4-acetamido-5-((4–(7-(tert-butoxycarbonyl)-2,7-diazaspiro[4.4]nonan-2-yl)benzyl)amino)-3-(pentan-3-yloxy)cyclohex-1-ene-1-carboxylic acid]
[1]
  IC50: 400 ± 33 nM

## CCC(CC)O[C@@H]1C=C(C(=O)O)C[C@H](NCc2ccc(-c3cnc(Cl)nc3)cc2)[C@H]1NC(C)=O [3d, (3R,4R,5S)-4-acetamido-5-((4–(2-chloropyrimidin-5-yl)benzyl)amino)-3-(pentan-3-yloxy)cyclohex-1-ene-1-carboxylic acid]
[1]
  IC50: 4340 ± 360 nM

## CCC(CC)O[C@@H]1C=C(C(=O)O)C[C@H](NCc2ccc(N3CC4CCCC4C3)cc2)[C@H]1NC(C)=O (stereo partly drawn) [6h, (3R,4R,5S)-4-acetamido-5-((4-(hexahydrocyclopenta[c]pyrrol-2(1H)-yl)benzyl)amino)-3-(pentan-3-yloxy)cyclohex-1-ene-1-carboxylic acid]
[1]
  IC50: 300 ± 1.6 nM
